The source of these data is PMC12080387, “Integrated thermal proteome and thermal proximity co-aggregation profiling identifies ATP6V1C1 as a novel anti-cancer drug target” (International Journal of Biological Sciences, 2025).

pKd: −log10 of the molar value.

The assay has as its target T1, ATP6V1C1 (Homo sapiens, UniProt P21283).
T1 construct: human wild-type ATP6V1C1, N-terminal 6xHis tag, modified pET30a, expressed in E. coli BL21 (DE3)
Briefly: ITC with purified recombinant protein; supported by CETSA/ITDRF (half-maximal destabilization […]) and TPP. The class given is binding.

T1 sequence (P21283 2-382): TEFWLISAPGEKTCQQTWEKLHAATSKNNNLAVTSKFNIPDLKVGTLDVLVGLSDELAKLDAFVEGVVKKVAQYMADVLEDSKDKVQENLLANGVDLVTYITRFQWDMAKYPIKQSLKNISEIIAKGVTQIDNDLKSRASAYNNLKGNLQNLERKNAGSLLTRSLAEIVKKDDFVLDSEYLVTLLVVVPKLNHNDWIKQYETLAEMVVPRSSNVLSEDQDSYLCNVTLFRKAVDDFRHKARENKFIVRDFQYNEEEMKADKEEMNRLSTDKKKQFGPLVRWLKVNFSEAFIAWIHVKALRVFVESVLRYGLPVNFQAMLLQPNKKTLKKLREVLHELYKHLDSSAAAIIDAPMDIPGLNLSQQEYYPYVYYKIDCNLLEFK

Consider `Cc1c([C@H](C)[C@@H]2NC[C@@H](C)C[C@H]2O)ccc2c1C[C@H]1[C@H]2CC=C2C[C@@H](O)CC[C@@]21C` [VAM, veratramine], for which the pKd is 5.93.

The term pKd denotes the negative decadic logarithm of the Kd, by convention in mol/L.
